Measured values: patent US20200222474A1, “COMPOSITIONS AND METHODS FOR INCREASING PHYTOCHEMICAL BIOAVAILABLITY AND BIOACTIVITY” (North Carolina State University, priority 2017, published 2020)

Test system: L. acidophilus NCFM
Experiment: RNA-seq transcriptional analysis of L. acidophilus NCFM growing on plant glycosides
Type: cell-based, Lactobacillus acidophilus
[1] = gene LBA0282 (Hypothetical protein)
[2] = gene LBA0327 (Replication protein)
[3] = gene LBA0328 (Hypothetical protein)
[4] = gene LBA0330 (Hypothetical protein)
[5] = gene LBA0457 (Hypothetical protein)
[6] = gene LBA0485 (Hypothetical protein)
[7] = gene LBA0486 (Hypothetical protein)
[8] = gene LBA0487 (Hypothetical protein.)
[9] = gene LBA0492 (Hypothetical protein)
[10] = gene LBA0541 (Cadmium-transporting ATPase)
[11] = gene LBA0542 (Putative heavy-metal-transporting alpase)
[12] = gene LBA0543 (Hypothetical protein)
[13] = gene LBA0544 (Transcriptional regulator)
[14] = gene LBA0555 (Myosin-crossreactive antigen)
[15] = gene LBA0564 (HAD family hydrolase)
[16] = gene LBA0574 (ABC multi drug exporter)
[17] = gene LBA0575 (ABC multi drug exporter)
[18] = gene LBA0604 (Immunity protein)
[19] = gene LBA0605 (Putative hydrolase)
[20] = gene LBA0608 (Hypothetical protein)
[21] = gene LBA0631 (Hypothetical protein)
[22] = gene LBA0649 (Myosin-crossreactive antigen)
[23] = gene LBA0728 (Hypothetical protein LBA0728)
[24] = gene LBA1025 (Aldo/keto reductase family oxidoreductase)
[25] = gene LBA1026 (Aldo/keto reduetase family oxidoreductase)
[26] = gene LBA1206 (Hypothetical protein)
[27] = gene LBA1401 (Peroxidase (Npx))
[28] = gene LBA1435 (Hypothetical protein)
[29] = gene LBA1455 (Putative surface layer protein)
[30] = gene LBA1469 (UDP-glucose 4-epimerase)
[31] = gene LBA1656 (Hypothetical protein)
[32] = gene LBA1675 (Hypothetical protein)
[33] = gene LBA1676 (ATP-dependent helicase)
[34] = gene LBA1683 (Putative magnesium-transporting atpase)
[35] = gene LBA1704 (N-Acetylmuramic acid-6-phosphate etherase)
[36] = gene LBA1740 (Hypothetical protein)
[37] = gene LBA1752 (Hypothetical protein)
[38] = gene LBA1769 (Hypothetical protein)
[39] = gene LBA1793 (Hypothetical protein)
[40] = gene LBA1869 (Beta-phosphoglueomutase)
[41] = gene LBA1895 (Hypothetical protein)
[42] = nTPM on plant glycoside relative to glucose, mid-exponential phase

Question: What does the source list for N#C[C@H](O[C@@H]1O[C@H](CO[C@@H]2O[C@H](CO)[C@@H](O)[C@H](O)[C@H]2O)[C@@H](O)[C@H](O)[C@H]1O)c1ccccc1 [Amygdalin]?
Answer: Log2 differential normalized TPM ratio compared to glucose [1]: 0.2; Log2 differential normalized TPM ratio compared to lactose [1]: −0.4; Transcripts per million (rpm) [1]: 20 rpm; Log2 differential normalized TPM ratio compared to glucose [2]: −0.9; Log2 differential normalized TPM ratio compared to lactose [2]: −1.1; Transcripts per million (rpm) [2]: 3.5 rpm; Log2 differential normalized TPM ratio compared to glucose [3]: −0.3; Log2 differential normalized TPM ratio compared to lactose [3]: −0.3; Transcripts per million (rpm) [3]: 9 rpm; Log2 differential normalized TPM ratio compared to glucose [4]: 0.1; Log2 differential normalized TPM ratio compared to lactose [4]: −0.2; Transcripts per million (rpm) [4]: 18.2 rpm; Log2 differential normalized TPM ratio compared to glucose [5]: 1.6; Log2 differential normalized TPM ratio compared to lactose [5]: 0.6; Transcripts per million (rpm) [5]: 1217.8 rpm; Log2 differential normalized TPM ratio compared to glucose [6]: 3.3; Log2 differential normalized TPM ratio compared to lactose [6]: 0.9; Transcripts per million (rpm) [6]: 1655 rpm; Log2 differential normalized TPM ratio compared to glucose [7]: 3.7; Log2 differential normalized TPM ratio compared to lactose [7]: 0.9; Transcripts per million (rpm) [7]: 2443 rpm; Log2 differential normalized TPM ratio compared to glucose [8]: 2.3; Log2 differential normalized TPM ratio compared to lactose [8]: 1; Transcripts per million (rpm) [8]: 132.1 rpm; Log2 differential normalized TPM ratio compared to glucose [9]: 5; Log2 differential normalized TPM ratio compared to lactose [9]: 2.6; Transcripts per million (rpm) [9]: 213.1 rpm; Log2 differential normalized TPM ratio compared to glucose [10]: 2; Log2 differential normalized TPM ratio compared to lactose [10]: −0.2; Transcripts per million (rpm) [10]: 119.7 rpm; Log2 differential normalized TPM ratio compared to glucose [11]: 2.2; Log2 differential normalized TPM ratio compared to lactose [11]: 0; Transcripts per million (rpm) [11]: 320.9 rpm; Log2 differential normalized TPM ratio compared to glucose [12]: 2.4; Log2 differential normalized TPM ratio compared to lactose [12]: 0; Transcripts per million (rpm) [12]: 283.1 rpm; Log2 differential normalized TPM ratio compared to glucose [13]: 1.9; Log2 differential normalized TPM ratio compared to lactose [13]: −0.1; Transcripts per million (rpm) [13]: 321.3 rpm; Log2 differential normalized TPM ratio compared to glucose [14]: 6; Log2 differential normalized TPM ratio compared to lactose [14]: 4.1; Transcripts per million (rpm) [14]: 2251.5 rpm; Log2 differential normalized TPM ratio compared to glucose [15]: 2.3; Log2 differential normalized TPM ratio compared to lactose [15]: 1.8; Transcripts per million (rpm) [15]: 4.1 rpm; Log2 differential normalized TPM ratio compared to glucose [16]: −1.2; Log2 differential normalized TPM ratio compared to lactose [16]: −1.5; Transcripts per million (rpm) [16]: 31.9 rpm; Log2 differential normalized TPM ratio compared to glucose [17]: −1; Log2 differential normalized TPM ratio compared to lactose [17]: −1.2; Transcripts per million (rpm) [17]: 32.6 rpm; Log2 differential normalized TPM ratio compared to glucose [18]: 2; Log2 differential normalized TPM ratio compared to lactose [18]: 1.6; Transcripts per million (rpm) [18]: 49.6 rpm; Log2 differential normalized TPM ratio compared to glucose [19]: 3.6; Log2 differential normalized TPM ratio compared to lactose [19]: 2.6; Transcripts per million (rpm) [19]: 26.3 rpm; Log2 differential normalized TPM ratio compared to glucose [20]: 3.1; Log2 differential normalized TPM ratio compared to lactose [20]: 2; Transcripts per million (rpm) [20]: 239.3 rpm; Log2 differential normalized TPM ratio compared to glucose [21]: 7.2; Log2 differential normalized TPM ratio compared to lactose [21]: 4; Transcripts per million (rpm) [21]: 141786.9 rpm; Log2 differential normalized TPM ratio compared to glucose [22]: 2.9; Log2 differential normalized TPM ratio compared to lactose [22]: 2.1; Transcripts per million (rpm) [22]: 228.6 rpm; Log2 differential normalized TPM ratio compared to glucose [23]: 6; Log2 differential normalized TPM ratio compared to lactose [23]: 4.2; Transcripts per million (rpm) [23]: 129.5 rpm; Log2 differential normalized TPM ratio compared to glucose (gene LBA0861 (Polyferredoxin)): 0; Log2 differential normalized TPM ratio compared to lactose (gene LBA0861 (Polyferredoxin)): −0.5; Transcripts per million (rpm) (gene LBA0861 (Polyferredoxin)): 153 rpm; Log2 differential normalized TPM ratio compared to glucose (gene LBA1023 (Oxidoreductase)): −1.5; Log2 differential normalized TPM ratio compared to lactose (gene LBA1023 (Oxidoreductase)): −1.8; Transcripts per million (rpm) (gene LBA1023 (Oxidoreductase)): 18.8 rpm; Log2 differential normalized TPM ratio compared to glucose [24]: −1.8; Log2 differential normalized TPM ratio compared to lactose [24]: −1.8; Transcripts per million (rpm) [24]: 7.2 rpm; Log2 differential normalized TPM ratio compared to glucose [25]: −1.7; Log2 differential normalized TPM ratio compared to lactose [25]: −2.1; Transcripts per million (rpm) [25]: 8.1 rpm; Log2 differential normalized TPM ratio compared to glucose (gene LBA1027 (Oxidoreductase)): 2.9; Log2 differential normalized TPM ratio compared to lactose (gene LBA1027 (Oxidoreductase)): 1.4; Transcripts per million (rpm) (gene LBA1027 (Oxidoreductase)): 3613.2 rpm; Log2 differential normalized TPM ratio compared to glucose [26]: 3.2; Log2 differential normalized TPM ratio compared to lactose [26]: 2; Transcripts per million (rpm) [26]: 984.2 rpm; Log2 differential normalized TPM ratio compared to glucose [27]: 4.4; Log2 differential normalized TPM ratio compared to lactose [27]: 2.3; Transcripts per million (rpm) [27]: 1161.2 rpm; Log2 differential normalized TPM ratio compared to glucose [28]: 7.1; Log2 differential normalized TPM ratio compared to lactose [28]: 3.3; Transcripts per million (rpm) [28]: 468.3 rpm; Log2 differential normalized TPM ratio compared to glucose [29]: 2.4; Log2 differential normalized TPM ratio compared to lactose [29]: 0.8; Transcripts per million (rpm) [29]: 73.9 rpm; Log2 differential normalized TPM ratio compared to glucose [30]: 2.4; Log2 differential normalized TPM ratio compared to lactose [30]: −2.6; Transcripts per million (rpm) [30]: 385.3 rpm; Log2 differential normalized TPM ratio compared to glucose [31]: 2.6; Log2 differential normalized TPM ratio compared to lactose [31]: 2.1; Transcripts per million (rpm) [31]: 103.5 rpm; Log2 differential normalized TPM ratio compared to glucose [32]: 2.1; Log2 differential normalized TPM ratio compared to lactose [32]: 0.6; Transcripts per million (rpm) [32]: 1397.9 rpm; Log2 differential normalized TPM ratio compared to glucose [33]: 1.9; Log2 differential normalized TPM ratio compared to lactose [33]: 0.7; Transcripts per million (rpm) [33]: 953.4 rpm; Log2 differential normalized TPM ratio compared to glucose [34]: 2; Log2 differential normalized TPM ratio compared to lactose [34]: 2.3; Transcripts per million (rpm) [34]: 53.6 rpm; Log2 differential normalized TPM ratio compared to glucose [35]: 2.1; Log2 differential normalized TPM ratio compared to lactose [35]: 1.4; Transcripts per million (rpm) [35]: 23 rpm; Log2 differential normalized TPM ratio compared to glucose [36]: 0.1; Log2 differential normalized TPM ratio compared to lactose [36]: −0.7; Transcripts per million (rpm) [36]: 15.4 rpm; Log2 differential normalized TPM ratio compared to glucose [37]: 0.8; Log2 differential normalized TPM ratio compared to lactose [37]: 0; Transcripts per million (rpm) [37]: 12.1 rpm; Log2 differential normalized TPM ratio compared to glucose [38]: 3; Log2 differential normalized TPM ratio compared to lactose [38]: 1.2; Transcripts per million (rpm) [38]: 10240.4 rpm; Log2 differential normalized TPM ratio compared to glucose [39]: 2.3; Log2 differential normalized TPM ratio compared to lactose [39]: −0.5; Transcripts per million (rpm) [39]: 67 rpm; Log2 differential normalized TPM ratio compared to glucose (gene LBA1796 (ABC exporter)): 2.4; Log2 differential normalized TPM ratio compared to lactose (gene LBA1796 (ABC exporter)): −0.1; Transcripts per million (rpm) (gene LBA1796 (ABC exporter)): 39.3 rpm; Log2 differential normalized TPM ratio compared to glucose [40]: 6.7; Log2 differential normalized TPM ratio compared to lactose [40]: 4.2; Transcripts per million (rpm) [40]: 670.5 rpm; Log2 differential normalized TPM ratio compared to glucose [41]: 2.8; Log2 differential normalized TPM ratio compared to lactose [41]: 2.6; Transcripts per million (rpm) [41]: 152.2 rpm; Log2 Ratio vs Glc, LBA0225 Phospho-β-glucosidase (GH1) [42]: 6.5; Log2 Ratio vs Glc, LBA0227 PTS EIIC [42]: 9.9; Log2 Ratio vs Glc, LBA0228 Transcriptional regulator [42]: 6.3; Log2 Ratio vs Glc, LBA0466 Phosphoenolpyruvate carboxykinase (ATP) [42]: 5.2; Log2 Ratio vs Glc, LBA0491 PTS EIIC [42]: 4.7; Log2 Ratio vs Glc, LBA0492 Hypothetical protein [42]: 5; Log2 Ratio vs Glc, LBA0555 Myosin-cross-reactive antigen/Fatty acid hydratase [42]: 6; Log2 Ratio vs Glc, LBA0606 PTS EIIBC [42]: 4.9; Log2 Ratio vs Glc, LBA0631 Hypothetical protein [42]: 7.2; Log2 Ratio vs Glc, LBA0724 Transcriptional regulator (antiterminator) [42]: 6.4; Log2 Ratio vs Glc, LBA0725 PTS EIICBA [42]: 9.7; Log2 Ratio vs Glc, LBA0726 Phospho-β-glucosidase (GH1) [42]: 7.2; Log2 Ratio vs Glc, LBA0728 Hypothetical protein [42]: 6; Log2 Ratio vs Glc, LBA0876 PTS EIIC [42]: 4.4; Log2 Ratio vs Glc, LBA0877 PTS EIIA [42]: 4.6; Log2 Ratio vs Glc, LBA1401 Peroxidase (Npx) [42]: 4.4; Log2 Ratio vs Glc, LBA1411 Fumarate reductase flavoprotein subunit [42]: 4; Log2 Ratio vs Glc, LBA1433 Dihydroxyacetone kinase [42]: 6; Log2 Ratio vs Glc, LBA1434 Dihydroxyacetone kinase [42]: 6.7; Log2 Ratio vs Glc, LBA1435 Hypothetical protein [42]: 7.1; Log2 Ratio vs Glc, LBA1436 Glycerol uptake facilitator protein [42]: 7.2; Log2 Ratio vs Glc, LBA1632 NAD-dependent aldehyde dehydrogenase [42]: 4.4; Log2 Ratio vs Glc, LBA1684 PTS EIIA [42]: 6.6; Log2 Ratio vs Glc, LBA1689 Maltose-6′-phosphate glucosidase (GH4) [42]: 5.3; Log2 Ratio vs Glc, LBA1701 Melibiose operon regulatory protein [42]: 5.3; Log2 Ratio vs Glc, LBA1709 Mucus binding protein precursor [42]: 4.5; Log2 Ratio vs Glc, LBA1797 Hypothetical protein [42]: 4.7; Log2 Ratio vs Glc, LBA1812 α-Glucosidase II (GH31) [42]: 5.3; Log2 Ratio vs Glc, LBA1869 β-Phosphoglucomutase [42]: 6.7; Log2 Ratio vs Glc, LBA1871 Neopullulanase (GH13) [42]: 4.3; Log2 Ratio vs Glc, LBA1873 Acetate kinase [42]: 4.6; Log2 Ratio vs Glc, LBA1974 Pyruvate oxidase [42]: 5.5
